Reference: PMC2248166, “Quantitative peptide binding motifs for 19 human and mouse MHC class I molecules derived using positional scanning combinatorial peptide libraries” (Immunome Research, 2008)
Where a SMILES comes first, the peptide text is derived from it.

Target: HLA A*3001 (Homo sapiens, UniProt P04439, D140H/D185E/E176W/F33S/G80R/H175R/K168Q/R138E/R41S)
Test: biochemical
Format: binding

Sequence of HLA A*3001 (P04439 25-365 limits assumed, stated change not applied): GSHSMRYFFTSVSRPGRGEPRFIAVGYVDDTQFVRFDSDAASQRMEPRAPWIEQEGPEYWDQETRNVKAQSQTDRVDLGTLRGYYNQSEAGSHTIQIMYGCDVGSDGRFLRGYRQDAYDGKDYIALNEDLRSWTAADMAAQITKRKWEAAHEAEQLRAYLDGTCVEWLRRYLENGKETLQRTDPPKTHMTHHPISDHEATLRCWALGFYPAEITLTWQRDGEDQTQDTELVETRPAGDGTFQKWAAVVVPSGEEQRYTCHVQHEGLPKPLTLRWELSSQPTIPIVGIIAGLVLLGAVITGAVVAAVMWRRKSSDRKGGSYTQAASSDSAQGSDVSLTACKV

SMILES	IC50
CC[C@H](C)[C@H](NC(=O)[C@@H](N)CO)C(=O)N[C@@H](CCCNC(=N)N)C(=O)N[C@@H](CCCNC(=N)N)C(=O)N[C@@H](CC(N)=O)C(=O)N[C@@H](CC(C)C)C(=O)N[C@@H](C)C(=O)N[C@@H](CC(C)C)C(=O)N[C@@H](CCCCN)C(=O)O [3102.0157] (H-SIRRNLALK-OH)	12 nM
CC(C)C[C@H](NC(=O)[C@H](CC(C)C)NC(=O)[C@H](CCCNC(=N)N)NC(=O)[C@@H](NC(=O)[C@@H](N)CO)C(C)C)C(=O)N[C@@H](CC(N)=O)C(=O)N[C@@H](Cc1ccc(O)cc1)C(=O)N[C@@H](Cc1ccccc1)C(=O)N[C@@H](CCCCN)C(=O)O [3102.0158] (H-SVRLLNYFK-OH)	0.24 nM
CC[C@H](C)[C@H](NC(=O)[C@H](CO)NC(=O)[C@@H](NC(=O)[C@@H](N)CCCCN)C(C)C)C(=O)N[C@@H](CC(C)C)C(=O)N[C@@H](Cc1c[nH]cn1)C(=O)N1CCC[C@H]1C(=O)N[C@H](C(=O)N[C@@H](CO)C(=O)O)[C@@H](C)CC [3102.0159] (H-KVSILHPIS-OH)	11 nM
CC[C@H](C)[C@H](NC(=O)[C@H](C)N)C(=O)N[C@@H](CCCNC(=N)N)C(=O)N[C@@H](C)C(=O)NCC(=O)N[C@@H](Cc1ccc(O)cc1)C(=O)N[C@@H](CO)C(=O)N[C@H](C(=O)N[C@H](C(=O)O)C(C)C)[C@@H](C)CC [3102.0160] (H-AIRAGYSIV-OH)	1.4 nM
CC(C)C[C@H](NC(=O)[C@H](CC(N)=O)NC(=O)[C@H](CC(C)C)NC(=O)[C@H](Cc1c[nH]c2ccccc12)NC(=O)[C@H](CO)NC(=O)[C@H](CC(N)=O)NC(=O)[C@H](CCCCN)NC(=O)[C@H](C)NC(=O)[C@@H](N)CO)C(=O)O [3102.0164] (H-SAKNSWLNL-OH)	0.57 nM
CC[C@H](C)[C@H](NC(=O)[C@@H]1CCCN1C(=O)[C@H](CCCCN)NC(=O)[C@@H](NC(=O)[C@@H](N)CCCNC(=N)N)[C@@H](C)O)C(=O)N[C@@H](CO)C(=O)N[C@@H](CCSC)C(=O)N[C@@H](Cc1ccc(O)cc1)C(=O)N[C@@H](Cc1ccccc1)C(=O)O [3102.0165] (H-RTKPISMYF-OH)	0.6 nM
CC[C@H](C)[C@H](NC(=O)[C@H](CO)NC(=O)[C@@H](NC(=O)[C@H](CCC(N)=O)NC(=O)[C@H](CCCCN)NC(=O)[C@@H](NC(=O)[C@@H](N)CCCNC(=N)N)C(C)C)[C@@H](C)CC)C(=O)N[C@@H](CO)C(=O)N[C@H](C(=O)O)[C@@H](C)O [3102.0166] (H-RVKQISIST-OH)	0.37 nM
CC(C)C[C@H](NC(=O)[C@H](CO)NC(=O)[C@@H]1CCCN1C(=O)[C@H](CC(C)C)NC(=O)[C@H](Cc1ccc(O)cc1)NC(=O)[C@H](CCCNC(=N)N)NC(=O)[C@@H](NC(=O)[C@@H](N)CCCNC(=N)N)[C@@H](C)O)C(=O)N[C@H](C(=O)O)C(C)C [3102.0167] (H-RTRYLPSLV-OH)	0.49 nM
C[C@@H](O)[C@H](N)C(=O)N[C@H](C(=O)N[C@@H](CCCCN)C(=O)N[C@@H](CC(=O)O)C(=O)N[C@@H](Cc1ccc(O)cc1)C(=O)N[C@@H](Cc1ccccc1)C(=O)N[C@@H](CO)C(=O)N[C@@H](Cc1ccccc1)C(=O)N[C@@H](CCCCN)C(=O)O)[C@@H](C)O [3102.0168] (H-TTKDYFSFK-OH)	1.2 nM
CC[C@H](C)[C@H](NC(=O)[C@@H](NC(=O)[C@@H](N)CCCNC(=N)N)[C@@H](C)O)C(=O)N[C@@H](CS)C(=O)N[C@H](C(=O)N[C@@H](CC(C)C)C(=O)N1CCC[C@H]1C(=O)N[C@@H](Cc1ccc(O)cc1)C(=O)N[C@@H](CC(C)C)C(=O)O)[C@@H](C)O [3102.0170] (H-RTICTLPYL-OH)	0.74 nM
CC(C)C[C@H](NC(=O)[C@H](Cc1ccc(O)cc1)NC(=O)[C@H](CO)NC(=O)[C@H](CO)NC(=O)[C@H](CO)NC(=O)[C@@H](NC(=O)[C@@H](N)CO)[C@@H](C)O)C(=O)N[C@@H](Cc1ccc(O)cc1)C(=O)N[C@@H](C)C(=O)O [3102.0171] (H-STSSSYLYA-OH)	13 nM
CSCC[C@H](NC(=O)[C@H](CCCCN)NC(=O)[C@H](CCCCN)NC(=O)[C@H](Cc1ccc(O)cc1)NC(=O)[C@H](CCCNC(=N)N)NC(=O)[C@H](C)NC(=O)[C@@H](N)CCCNC(=N)N)C(=O)N[C@@H](CC(C)C)C(=O)N[C@@H](CCCCN)C(=O)O [3102.0172] (H-RARYKKMLK-OH)	1 nM
CSCC[C@H](N)C(=O)N[C@@H](CC(C)C)C(=O)N[C@@H](CCCNC(=N)N)C(=O)N[C@@H](Cc1ccccc1)C(=O)N[C@@H](C)C(=O)N[C@@H](CC(N)=O)C(=O)N1CCC[C@H]1C(=O)N[C@@H](CC(C)C)C(=O)N[C@@H](CO)C(=O)O [3102.0173] (H-MLRFANPLS-OH)	0.17 nM
CSCC[C@H](NC(=O)[C@H](CCC(=O)O)NC(=O)[C@H](CO)NC(=O)[C@H](CC(C)C)NC(=O)[C@H](CCCNC(=N)N)NC(=O)[C@@H](NC(=O)[C@@H](N)CCCCN)[C@@H](C)O)C(=O)N[C@@H](CC(C)C)C(=O)N[C@@H](CO)C(=O)O [3102.0174] (H-KTRLSEMLS-OH)	0.45 nM
CC(C)[C@H](NC(=O)[C@H](CO)NC(=O)[C@H](CCCNC(=N)N)NC(=O)[C@H](Cc1ccccc1)NC(=O)[C@H](CCCNC(=N)N)NC(=O)[C@H](Cc1ccccc1)NC(=O)[C@@H](N)CCCNC(=N)N)C(=O)N[C@@H](Cc1ccc(O)cc1)C(=O)NCC(=O)O [3102.0175] (H-RFRFRSVYG-OH)	0.36 nM
C[C@H](NC(=O)[C@H](C)NC(=O)[C@H](CCCCN)NC(=O)CNC(=O)[C@@H](N)CCCCN)C(=O)N[C@@H](C)C(=O)N[C@@H](Cc1ccccc1)C(=O)N[C@@H](C)C(=O)N[C@@H](CCCCN)C(=O)O [3102.0176] (H-KGKAAAFAK-OH)	3.1 nM
CC(C)C[C@H](NC(=O)[C@H](C)NC(=O)[C@@H](N)CO)C(=O)N[C@@H](Cc1ccc(O)cc1)C(=O)N[C@@H](CO)C(=O)N[C@@H](Cc1ccc(O)cc1)C(=O)N[C@@H](C)C(=O)N[C@@H](CO)C(=O)N[C@@H](C)C(=O)O [3102.0177] (H-SALYSYASA-OH)	37 nM
CC(C)C[C@H](NC(=O)[C@H](CO)NC(=O)[C@H](CC(C)C)NC(=O)[C@H](CS)NC(=O)[C@H](CCCNC(=N)N)NC(=O)[C@H](CO)NC(=O)[C@@H](N)CS)C(=O)N[C@@H](Cc1ccccc1)C(=O)N[C@@H](Cc1ccc(O)cc1)C(=O)O [3102.0178] (H-CSRCLSLFY-OH)	22 nM
CC(C)C[C@H](NC(=O)[C@H](C)NC(=O)[C@H](Cc1ccc(O)cc1)NC(=O)[C@H](CCCNC(=N)N)NC(=O)[C@@H](NC(=O)[C@@H](N)CC(C)C)[C@@H](C)O)C(=O)N[C@@H](Cc1c[nH]cn1)C(=O)NCC(=O)N[C@@H](CCCCN)C(=O)O [3102.0179] (H-LTRYALHGK-OH)	0.25 nM
CC[C@H](C)[C@H](NC(=O)[C@@H](NC(=O)[C@H](CO)NC(=O)[C@H](CCCNC(=N)N)NC(=O)[C@H](CC(C)C)NC(=O)[C@H](CO)NC(=O)[C@@H](N)CCSC)[C@@H](C)O)C(=O)N[C@H](C(=O)N[C@@H](CCCCN)C(=O)O)[C@@H](C)CC [3102.0180] (H-MSLRSTIIK-OH)	37 nM
CC(C)C[C@H](NC(=O)[C@H](CC(C)C)NC(=O)[C@H](Cc1ccc(O)cc1)NC(=O)[C@@H](NC(=O)[C@H](C)NC(=O)[C@H](CCCCN)NC(=O)[C@@H](NC(=O)[C@@H](N)C(C)C)C(C)C)[C@@H](C)O)C(=O)N[C@@H](CCCCN)C(=O)O [3102.0181] (H-VVKATYLLK-OH)	0.32 nM
CC(C)C[C@H](NC(=O)[C@H](CCC(N)=O)NC(=O)[C@H](Cc1c[nH]cn1)NC(=O)[C@H](CCCCN)NC(=O)[C@H](CO)NC(=O)[C@H](CO)NC(=O)[C@@H](NC(=O)[C@@H](N)CCCCN)C(C)C)C(=O)N[C@H](C(=O)O)C(C)C [3102.0182] (H-KVSSKHQLV-OH)	14 nM
CC(C)C[C@H](N)C(=O)N[C@H](C(=O)N[C@@H](CCCCN)C(=O)N[C@@H](CO)C(=O)N[C@@H](CO)C(=O)N[C@@H](Cc1ccccc1)C(=O)N[C@H](C(=O)N[C@@H](CCCCN)C(=O)N[C@@H](CCCCN)C(=O)O)C(C)C)C(C)C [3102.0185] (H-LVKSSFVKK-OH)	5.6 nM
CC[C@H](C)[C@H](NC(=O)[C@@H]1CCCN1C(=O)[C@H](C)NC(=O)[C@H](CO)NC(=O)[C@H](C)NC(=O)[C@@H]1CCCN1C(=O)[C@H](CCCCN)NC(=O)[C@@H](NC(=O)[C@@H](N)CCCNC(=N)N)[C@@H](C)O)C(=O)O [3102.0187] (H-RTKPASAPI-OH)	0.11 nM
CC[C@H](C)[C@H](NC(=O)[C@H](Cc1ccccc1)NC(=O)[C@H](CC(C)C)NC(=O)[C@H](CC(=O)O)NC(=O)[C@H](CCCNC(=N)N)NC(=O)[C@@H](NC(=O)[C@@H](N)CCCNC(=N)N)[C@@H](C)O)C(=O)N[C@@H](C)C(=O)N[C@@H](CC(C)C)C(=O)O [3102.0188] (H-RTRDLFIAL-OH)	0.11 nM
CC[C@H](C)[C@H](NC(=O)[C@@H](NC(=O)[C@@H](N)CCCCN)[C@@H](C)O)C(=O)N[C@@H](Cc1c[nH]c2ccccc12)C(=O)N[C@@H](CCC(=O)O)C(=O)N[C@H](C(=O)N1CCC[C@H]1C(=O)N[C@@H](CCC(N)=O)C(=O)N[C@@H](CCCCN)C(=O)O)[C@@H](C)CC [3102.0190] (H-KTIWEIPQK-OH)	12 nM
CC[C@H](C)[C@H](NC(=O)[C@@H](NC(=O)[C@@H](N)CCCCN)C(C)C)C(=O)N[C@H](C(=O)N[C@@H](CCCNC(=N)N)C(=O)N[C@@H](CC(N)=O)C(=O)N[C@@H](CC(C)C)C(=O)N[C@@H](CC(N)=O)C(=O)N[C@@H](CCCCN)C(=O)O)C(C)C [3102.0191] (H-KVIVRNLNK-OH)	1.4 nM
CC(C)C[C@H](NC(=O)[C@H](Cc1c[nH]c2ccccc12)NC(=O)[C@H](CCCCN)NC(=O)[C@@H](NC(=O)[C@@H](N)CCCCN)C(C)C)C(=O)N[C@@H](CCC(N)=O)C(=O)N[C@@H](CC(N)=O)C(=O)N[C@@H](CO)C(=O)N[C@H](C(=O)O)C(C)C [3102.0194] (H-KVKWLQNSV-OH)	0.5 nM
CSCC[C@H](NC(=O)[C@@H]1CCCN1C(=O)[C@H](CC(C)C)NC(=O)[C@H](CO)NC(=O)[C@H](CCC(=O)O)NC(=O)[C@H](CCCCN)NC(=O)[C@H](CC(N)=O)NC(=O)[C@@H](N)CCCCN)C(=O)N[C@@H](CC(C)C)C(=O)O [3102.0195] (H-KNKESLPML-OH)	18 nM
CC[C@H](C)[C@H](NC(=O)[C@H](CO)NC(=O)[C@@H](NC(=O)[C@H](CCCCN)NC(=O)[C@H](CCCCN)NC(=O)[C@H](CCC(N)=O)NC(=O)[C@@H](N)CCCNC(=N)N)[C@@H](C)CC)C(=O)N[C@@H](CC(C)C)C(=O)N[C@H](C(=O)O)C(C)C [3102.0196] (H-RQKKISILV-OH)	0.36 nM
